# From patent publication US4513008A, “Virucidal compositions and therapy” (The Vinoxen Company, Inc., priority 1982, dated 1985)
# Legend:
# [1] = Guinea pig toxicity controls (sham-infected, topical treatment); format: in vivo, guinea pigs; conditions: for Toxicity Controls Max. Irrit. Score: 0 to 4 scale
# Procedure: (§1) Drugs. The substances tested consisted of four bottles labelled "A", "B", "C", and "D" with no identifying key. The samples were: A, 0.1 mg/ml DHA (0.003 mmol/ml); B, 5% w/w ACV (0.22 mmol/ml); C, 1 mg/ml DHA (0.03 mmol/ml); and D, 10 mg/ml DHA ([…]). […] All were treated as light-sensitive compounds.
# (§2) Experimental Protocol. The guinea pigs were infected by applying a virus-soaked swab intravaginally, with agitation, for 20 seconds. Toxicity control animals were similar pretreated using swabs soaked in sterile Puck's balanced salt solution. Treatment began 20 hr later, with the compound or placebo applied topically intravaginally, perivaginally, and perianally using cotton swabs soaked in the respective substance. Treatment continued three times daily (8 a.m., noon, 4 p.m.) for 7 days. Ten infected animals were used for each coded substance, with twenty used for virus controls. Five sham-infected animals were concomitantly treated with each coded substance to serve as toxicity controls. Two guinea pigs were held separately to serve as normal untreated controls.
# (§3) Each animal was observed daily for survival for a total of 28 days. On days 5 through 8 post-virus inoculation, the genital area was carefully examined and signs of irritation in the toxicity controls and lesion severity in injected animals was scored on a 0 to 4 scale using the same scale as in the mouse bioassay. The results were scored as average daily lesion (ADL) scores for each group, and as mean vaginal lesion (MVL) scores, calculated as the mean of the ADL scores for days 5-8. The maximum mean score for the toxicity control animals was also determined.
# [2] = Visually observed solubility in DMSO-HBSS; format: physicochemical; conditions: 1 mg in 1 ml of 70% DMSO-30% HBSS
# Procedure: Vehicles. […] The DMSO-HBSS vehicle was selected based on the observed (visually) solubility of DHA in various DMSO-HBSS solutions. 1 mg DHA was soluble in 1 ml of 70% DMSO-30% HBSS.
# [3] = tested on: herpes virus type 2; assay: Guinea pig bioassay: intravaginal HSV-2 infection, topical treatment; format: in vivo; design: key to MVL Score Day 5 / MVL Score Day 6 / MVL Score Day 7 / MVL Score Day: lesion severity scored on 0 to 4 scale; conditions: for MVL Scores Days 5-8: 0 to 4 scale; for Infected, Treated Surv/Total: 28 days; for MVL Score Day: last day; for reduction in lesion scores, in words: guinea pigs, topical
# Procedure: In both studies, DHA was compared with ACV in a controlled study for effectiveness in reducing the occurrence and the severity of lesions resulting from infection by HSV-2 and in reducing mortality resulting from the virus infection.
# Using substantially the procedures of Pancic et al., loc. cit., the topical activity of DHA, a representative and preferred virucide for use in the present method, was evaluated in mice and in guinea pigs. Both evaluations included comparative testing against ACV and the mouse tests included a comparison of two different vehicles.
# A blind comparative test was carried out on guinea pigs using coded substances labeled A through D. The testers were told only that one of the four substances was ACV, that the other three coded samples were the same material, in concentrations of 0.1, 1.0 and 10 mg/ml, and that all four samples were formulated in a polyethylene glycol 1000 (PEG-1000) vehicle. A separate sample of the PEG-1000 was also submitted to serve as a placebo for treating virus control animals. The materials and experimental protocol is shown below.
# Animals. Female Hartley strain albino guinea pigs weighing about 450-500 g were used. The animals were quarantined 24 hr prior to use in this study, and maintained 5 to a 32"×32"×9" stainless steel cage on Wayne guinea pig diet and water ad libitum.
# Virus. Strain E194 of herpes virus type 2 was used. […] The virus was held at -90° C. until used.
# as §1
# as §2, with “Toxicity control animals were similar pretreated using swabs soaked in sterile Puck's balanced salt solution.” left out
# as §3, with “On” for “Each animal was observed daily for survival for a total of 28 days. On”
# On day 6 prior to the 8 a.m. treatment, intravaginal and perivaginal areas of each infected guinea pig were uniformly swabbed with sterile cotton swabs. The swab for each animal was placed in 1.0 ml of sterile Eagles minimum essential medium and immediately frozen at -90° C.; several days later all were thawed and each swab-containing sample vortexed for 15 seconds and then the sample was diluted through a series of 10-fold dilutions in sterile medium. Each dilution was assayed for virus in triplicate by adding 0.1 ml to an established monolayer of MA-104 cells in 96-well disposable plastic microplates. The plates were sealed, incubated at 72 hr at 37° C., and virus-induced cytopathic effect noted microscopically.
# Data Analysis. Increases in survivors were analyzed using chi square analysis with Yate's correction. Mean survival times (MST) of animals dying on or before […] were determined for each group, and evaluated using the t test.
# [4] = C: 1 mg/ml DHA in PEG-1000, P < 0.05
# [5] = D: 10 mg/ml DHA in PEG-1000, P < 0.05
smiles,measurement,setting,value
"CCC=CCC=CCC=CCC=CCC=CCC=CCCC(=O)O [DHA, 4,7,10,13,16,19 Docosahexaenoic Acid]",Toxicity Controls Surv/Total,[1]; A: 0.1 mg/ml DHA in PEG-1000,5/5
same,Toxicity Controls Max. Irrit. Score,[1]; A: 0.1 mg/ml DHA in PEG-1000,0.0
same,Toxicity Controls Surv/Total,[1]; C: 1 mg/ml DHA in PEG-1000,5/5
same,Toxicity Controls Max. Irrit. Score,[1]; C: 1 mg/ml DHA in PEG-1000,0.0
same,Toxicity Controls Surv/Total,[1]; D: 10 mg/ml DHA in PEG-1000,5/5
same,Toxicity Controls Max. Irrit. Score,[1]; D: 10 mg/ml DHA in PEG-1000,0.0
same,solubility,[2],soluble
same,MST (mean survival time),[3]; A: 0.1 mg/ml DHA in PEG-1000,12.3 days
same,MVL Score Day 5,[3]; A: 0.1 mg/ml DHA in PEG-1000,2.4
same,MVL Score Day 6,[3]; A: 0.1 mg/ml DHA in PEG-1000,3.0
same,MVL Score Day 7,[3]; A: 0.1 mg/ml DHA in PEG-1000,3.5
same,MVL Scores Days 5-8,[3]; A: 0.1 mg/ml DHA in PEG-1000,3.2
same,"Infected, Treated Surv/Total",[3]; A: 0.1 mg/ml DHA in PEG-1000,6/10
same,MVL Score Day,[3]; A: 0.1 mg/ml DHA in PEG-1000,3.8
same,MST (mean survival time),[3]; C: 1 mg/ml DHA in PEG-1000,13.3 days
same,MVL Score Day 5,[3]; C: 1 mg/ml DHA in PEG-1000,1.7
same,MVL Score Day 7,[3]; C: 1 mg/ml DHA in PEG-1000,2.8
same,MVL Scores Days 5-8,[3]; [4],2.4
same,"Infected, Treated Surv/Total",[3]; C: 1 mg/ml DHA in PEG-1000,4/10
same,MVL Score Day 6,[3]; [4],2.3
same,MVL Score Day,[3]; C: 1 mg/ml DHA in PEG-1000,3.1
same,MST (mean survival time),[3]; D: 10 mg/ml DHA in PEG-1000,16.5 days
same,MVL Score Day 7,[3]; D: 10 mg/ml DHA in PEG-1000,3.0
same,MVL Scores Days 5-8,[3]; [5],2.4
same,"Infected, Treated Surv/Total",[3]; D: 10 mg/ml DHA in PEG-1000,8/10
same,MVL Score Day 5,[3]; [5],1.5
same,MVL Score Day 6,[3]; [5],2.1
same,MVL Score Day,[3]; D: 10 mg/ml DHA in PEG-1000,3.1
same,"reduction in lesion scores, in words",[3],neither ACV nor the lowest dosage of DHA were able to achieve a statistically significant reduction in lesion scores
same,"reduction in lesion scores, in words",[3]; listed as C,statistically significant reductions in lesion scores
same,"reduction in lesion scores, in words",[3]; listed as D,statistically significant reductions in lesion scores
